Test results as given in US7109207B2, “Spirosubstituted piperidines as selective melanin concentrating hormone receptor antagonists for the treatment of obesity” (Schering Corporation, priority 2002, dated 2006).
pKi: −log10 of the molar value.

molecular target: T1, MCH receptor (Homo sapiens, UniProt Q99705); experiment: MCH Receptor Binding Assay ([125I]-MCH, SPA, membranes from CHO cells expressing the MCH receptor); settings: CHO cell membranes, read-out: Activity (Ki class)
T1 construct: expressed in transfected cells; host or cells: CHO cells
T1 sequence (Q99705 whole entry): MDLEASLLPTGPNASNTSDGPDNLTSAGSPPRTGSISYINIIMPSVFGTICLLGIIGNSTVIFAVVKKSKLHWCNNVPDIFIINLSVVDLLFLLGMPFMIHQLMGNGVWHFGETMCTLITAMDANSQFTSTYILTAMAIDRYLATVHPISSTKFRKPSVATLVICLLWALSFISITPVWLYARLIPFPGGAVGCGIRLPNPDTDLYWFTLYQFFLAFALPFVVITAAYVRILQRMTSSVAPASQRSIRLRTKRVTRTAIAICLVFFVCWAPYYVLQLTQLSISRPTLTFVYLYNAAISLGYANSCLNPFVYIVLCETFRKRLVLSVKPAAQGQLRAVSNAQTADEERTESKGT
Experimental: MCH Receptor Binding Assay:
Membranes from CHO cells expressing the MCH receptor were prepared by lysing cells with 5 mM HEPES for 15 min at 4C. Cell lysates were centrifuged ([…], 15 min) and the pellet was resuspended in 5 mM HEPES. For each 96-well plate (Microlite, Dynex Technologies), 1 mg of cell membranes were incubated with 10 mg of wheat germ agglutinin SPA beads (Amersham) for 5 min at 4 C in a volume of 10 ml of binding buffer (25 mM HEPES, 10 mM MGCl2, 10 mM NaCl, 5 mM MnCl2, 0.1% BSA). The membrane/bead mixture was centrifuged (1500×g, 3.5 min), the supernatant was aspirated, and the pellet was resuspended in 10 ml binding buffer. The centrifugation, aspiration and resuspension were then repeated. The membrane/bead mixture (100 μl) was then added to 96-well plates containing 50 μof 500 pM [^125I]-MCH (NEN) and […] of the appropriate concentration of compound (4× the desired final concentration). Nonspecific binding was determined by including 1 μM MCH in the binding reaction. The binding reaction was incubated at room temperature for 2 h. Plates were then analyzed in a TOPCOUNT microplate scintillation counter (Packard). Data was analyzed and Ki values were determined using GraphPad Prism.

**Q.** How did the pKi turn out when `CC(C)N1CCC2(CC1)c1ccc(-c3cccc(C#N)c3)cc1CCN2CC(=O)Nc1cc(Cl)cc(Cl)c1` [Compound 7a] was run?
**A.** > 7.52

**Q.** With `CC(C)N1CCC2(CC1)c1ccc(-c3cccc(C#N)c3)cc1CCN2CC(=O)Nc1ccc(F)c(Cl)c1` [Compound 7b] as the compound, how does the pKi read?
**A.** 7.00 to 7.52

**Q.** With `CC(C)N1CCC2(CC1)c1ccc(-c3cccc(C#N)c3)cc1CCN2CC(=O)Nc1cc(F)cc(F)c1` [Compound 7c] as the compound, how does the pKi read?
**A.** 7.00 to 7.52

**Q.** With `CC(C)N1CCC2(CC1)c1ccc(-c3cccc(C#N)c3)cc1CCN2CC(=O)Nc1ccc(Cl)c(C(F)(F)F)c1` [Compound 7d] as the compound, how does the pKi read?
**A.** < 7.00

**Q.** With `CC(C)N1CCC2(CC1)c1ccc(-c3cccc(C#N)c3)cc1CCN2CC(=O)Nc1ccc(Cl)c(Cl)c1` [Compound 7e] as the compound, how does the pKi read?
**A.** < 7.00

**Q.** With `N#Cc1cccc(-c2ccc3c(c2)CCN(CC(=O)Nc2ccc(F)c(Cl)c2)C32CCN(CC3CC3)CC2)c1` [Compound 8a] as the compound, how does the pKi read?
**A.** > 7.52

**Q.** How did the pKi turn out when `N#Cc1cccc(-c2ccc3c(c2)CCN(CC(=O)Nc2ccc(Cl)cc2)C32CCN(CC3CC3)CC2)c1` [Compound 8b] was run?
**A.** < 7.00

**Q.** With `N#Cc1cccc(-c2ccc3c(c2)CCN(CC(=O)Nc2cccc(Cl)c2)C32CCN(CC3CC3)CC2)c1` [Compound 8c] as the compound, how does the pKi read?
**A.** 7.00 to 7.52

**Q.** `N#Cc1cccc(-c2ccc3c(c2)CCN(CC(=O)Nc2ccc(F)c(F)c2)C32CCN(CC3CC3)CC2)c1` [Compound 8d] was tested. Which pKi did it give?
**A.** 7.00 to 7.52

**Q.** `N#Cc1cccc(-c2ccc3c(c2)CCN(CC(=O)Nc2ccc(F)c(C(F)(F)F)c2)C32CCN(CC3CC3)CC2)c1` [Compound 8e] was tested. Which pKi did it give?
**A.** > 7.52

**Q.** With `N#Cc1cccc(-c2ccc3c(c2)CCN(CC(=O)Nc2cc(F)cc(C(F)(F)F)c2)C32CCN(CC3CC3)CC2)c1` [Compound 8f] as the compound, how does the pKi read?
**A.** 7.00 to 7.52

**Q.** `N#Cc1cccc(-c2ccc3c(c2)CCN(CC(=O)Nc2cc(F)cc(F)c2)C32CCN(CC3CC3)CC2)c1` [Compound 8g] was tested. Which pKi did it give?
**A.** 7.00 to 7.52

**Q.** How did the pKi turn out when `N#Cc1cccc(-c2ccc3c(c2)CCN(CC(=O)Nc2ccc(Cl)c(Cl)c2)C32CCN(CC3CC3)CC2)c1` [Compound 8h] was run?
**A.** < 7.00

**Q.** With `N#Cc1cccc(-c2ccc3c(c2)CCN(CC(=O)Nc2ccc(Cl)c(C(F)(F)F)c2)C32CCN(CC3CC3)CC2)c1` [Compound 8i] as the compound, how does the pKi read?
**A.** < 7.00

**Q.** `N#Cc1cccc(-c2ccc3c(c2)CCN(CC(=O)Nc2cc(Cl)cc(Cl)c2)C32CCNCC2)c1` [Compound 10c] was tested. Which pKi did it give?
**A.** 7.00 to 7.52

**Q.** With `N#Cc1cccc(-c2ccc3c(c2)CCN(CC(=O)Nc2cc(Cl)cc(Cl)c2)C32CCN(C3CCCCCC3)CC2)c1` [Compound 11a] as the compound, how does the pKi read?
**A.** > 7.52

**Q.** How did the pKi turn out when `N#Cc1cccc(-c2ccc3c(c2)CCN(CC(=O)Nc2cc(Cl)cc(Cl)c2)C32CCN(C3CCC3)CC2)c1` [Compound 11b] was run?
**A.** > 7.52

**Q.** `N#Cc1cccc(-c2ccc3c(c2)CCN(CC(=O)Nc2cc(Cl)cc(Cl)c2)C32CCN(CC3CC3)CC2)c1` [Compound 11c] was tested. Which pKi did it give?
**A.** > 7.52

**Q.** How did the pKi turn out when `N#Cc1cccc(-c2ccc3c(c2)CCN(CC(=O)Nc2cc(Cl)cc(Cl)c2)C32CCN(C3CCCC3)CC2)c1` [Compound 11d] was run?
**A.** > 7.52

**Q.** How did the pKi turn out when `N#Cc1cccc(-c2ccc3c(c2)CCN(CC(=O)Nc2cc(Cl)cc(Cl)c2)C32CCN(CCO)CC2)c1` [Compound 11e] was run?
**A.** 7.00 to 7.52

**Q.** With `CN1CCC2(CC1)c1ccc(-c3cccc(C#N)c3)cc1CCN2CC(=O)Nc1cc(Cl)cc(Cl)c1` [Compound 11f] as the compound, how does the pKi read?
**A.** 7.00 to 7.52

**Q.** With `CCN1CCC2(CC1)c1ccc(-c3cccc(C#N)c3)cc1CCN2CC(=O)Nc1cc(Cl)cc(Cl)c1` [Compound 11g] as the compound, how does the pKi read?
**A.** 7.00 to 7.52

**Q.** How did the pKi turn out when `N#Cc1cccc(-c2ccc3c(c2)CCN(CC(=O)Nc2cc(Cl)cc(Cl)c2)C32CCN(C3CCOCC3)CC2)c1` [Compound 11h] was run?
**A.** > 7.52

**Q.** How did the pKi turn out when `N#Cc1cccc(-c2ccc3c(c2)CCN(CC(=O)Nc2cc(Cl)cc(Cl)c2)C32CCN(Cc3ccoc3)CC2)c1` [Compound 11i] was run?
**A.** 7.00 to 7.52

**Q.** With `N#Cc1cccc(-c2ccc3c(c2)CCN(CC(=O)Nc2cc(Cl)cc(Cl)c2)C32CCN(C3CCSC3)CC2)c1` (stereo not shown) [Compound 11j] as the compound, how does the pKi read?
**A.** 7.00 to 7.52

**Q.** With `CC(C)N1CCC2(CC1)c1ccc(-c3cccc(C#N)c3)cc1CCN2Cc1nc2ccccc2[nH]1` [Compound 12a] as the compound, how does the pKi read?
**A.** < 7.00

**Q.** How did the pKi turn out when `N#Cc1cccc(-c2ccc3c(c2)CCN(Cc2nc4cc(Cl)c(Cl)cc4[nH]2)C32CCNCC2)c1` [Compound 12d] was run?
**A.** < 7.00

**Q.** How did the pKi turn out when `N#Cc1cccc(-c2ccc3c(c2)CCN(Cc2nc4cc(F)c(Cl)cc4[nH]2)C32CCNCC2)c1` [Compound 12e] was run?
**A.** < 7.00

**Q.** How did the pKi turn out when `N#Cc1cccc(-c2ccc3c(c2)CCN(Cc2nc4cc(Cl)c(Cl)cc4[nH]2)C32CCN(CC3CC3)CC2)c1` [Compound 12f] was run?
**A.** < 7.00

**Q.** With `CC(C)(C)OC(=O)N1CCC2(CC1)c1ccc(-c3cccc(C#N)c3)cc1CCN2CC(=O)Nc1cc(Cl)cc(Cl)c1` [Compound 30a] as the compound, how does the pKi read?
**A.** < 7.00

**Q.** How did the pKi turn out when `CC(=O)N1CCC2(CC1)c1ccc(-c3cccc(C#N)c3)cc1CCN2CC(=O)Nc1cc(Cl)cc(Cl)c1` [Compound 30b] was run?
**A.** < 7.00

**Q.** `CS(=O)(=O)N1CCC2(CC1)c1ccc(-c3cccc(C#N)c3)cc1CCN2CC(=O)Nc1cc(Cl)cc(Cl)c1` [Compound 30c] was tested. Which pKi did it give?
**A.** < 7.00

**Q.** How did the pKi turn out when `CN(C)S(=O)(=O)N1CCC2(CC1)c1ccc(-c3cccc(C#N)c3)cc1CCN2CC(=O)Nc1cc(Cl)cc(Cl)c1` [Compound 30d] was run?
**A.** < 7.00

same assay, conditions: CHO cell membranes, read-out: Ki value

**Q.** `N#Cc1cccc(-c2ccc3c(c2)CCN(CC(=O)Nc2cc(Cl)cc(Cl)c2)C32CCN(C3CCCCCC3)CC2)c1` [Compound 11a] was tested. Which pKi did it give?
**A.** 7.96
